Like-named read-outs stand apart in the source and are kept apart here.
Legend:
Assay in all cases: biochemical
Design in all cases: Eurofins KinaseProfiler full panel at Km ATP, residual kinase activity (%) relative to DMSO
PEK(h) = biological target: T1, PEK(h) (Homo sapiens, UniProt Q9NZJ5)
T1 construct: gene EIF2AK3
T1 sequence (Q9NZJ5 1-1116): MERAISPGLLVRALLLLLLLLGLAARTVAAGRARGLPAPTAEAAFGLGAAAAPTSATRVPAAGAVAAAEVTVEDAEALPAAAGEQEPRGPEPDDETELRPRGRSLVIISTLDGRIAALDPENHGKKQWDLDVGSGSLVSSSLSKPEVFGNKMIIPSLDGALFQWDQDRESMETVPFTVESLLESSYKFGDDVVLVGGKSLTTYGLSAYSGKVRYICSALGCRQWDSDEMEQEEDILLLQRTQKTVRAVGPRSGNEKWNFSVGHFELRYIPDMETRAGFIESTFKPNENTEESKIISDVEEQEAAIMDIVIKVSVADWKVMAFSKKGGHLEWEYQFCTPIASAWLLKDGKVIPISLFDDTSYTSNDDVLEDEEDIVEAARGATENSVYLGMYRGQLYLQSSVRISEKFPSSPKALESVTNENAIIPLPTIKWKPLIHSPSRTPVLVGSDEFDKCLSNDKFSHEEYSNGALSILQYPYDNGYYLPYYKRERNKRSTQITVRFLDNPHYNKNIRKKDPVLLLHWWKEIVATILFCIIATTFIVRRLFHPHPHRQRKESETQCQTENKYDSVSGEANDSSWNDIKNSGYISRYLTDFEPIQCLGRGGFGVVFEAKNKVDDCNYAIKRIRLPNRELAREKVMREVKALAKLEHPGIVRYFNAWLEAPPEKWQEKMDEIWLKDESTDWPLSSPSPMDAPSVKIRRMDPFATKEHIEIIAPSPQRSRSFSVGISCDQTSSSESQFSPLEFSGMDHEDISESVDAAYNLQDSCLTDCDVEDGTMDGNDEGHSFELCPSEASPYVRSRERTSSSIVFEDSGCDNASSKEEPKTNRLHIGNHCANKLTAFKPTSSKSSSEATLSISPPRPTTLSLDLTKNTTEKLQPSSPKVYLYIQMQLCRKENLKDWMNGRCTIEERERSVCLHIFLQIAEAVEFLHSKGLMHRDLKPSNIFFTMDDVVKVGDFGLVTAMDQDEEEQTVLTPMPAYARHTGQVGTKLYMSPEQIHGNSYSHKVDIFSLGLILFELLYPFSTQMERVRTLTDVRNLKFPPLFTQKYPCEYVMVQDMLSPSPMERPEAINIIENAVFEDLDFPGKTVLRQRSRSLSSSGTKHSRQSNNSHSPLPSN
Method in brief: (§1)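 Two 10 µM single-concentration screens were run: a competition-binding screen, in which DNA-tagged kinase bound to immobilized ligands was quantified by qPCR, and a radiometric activity panel at Km ATP. Each is expressed as residual kinase activity (%).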

PAK5(h) = PAK5(h) (Homo sapiens, UniProt Q9P286)
Sequence of PAK5(h) (Q9P286 whole entry): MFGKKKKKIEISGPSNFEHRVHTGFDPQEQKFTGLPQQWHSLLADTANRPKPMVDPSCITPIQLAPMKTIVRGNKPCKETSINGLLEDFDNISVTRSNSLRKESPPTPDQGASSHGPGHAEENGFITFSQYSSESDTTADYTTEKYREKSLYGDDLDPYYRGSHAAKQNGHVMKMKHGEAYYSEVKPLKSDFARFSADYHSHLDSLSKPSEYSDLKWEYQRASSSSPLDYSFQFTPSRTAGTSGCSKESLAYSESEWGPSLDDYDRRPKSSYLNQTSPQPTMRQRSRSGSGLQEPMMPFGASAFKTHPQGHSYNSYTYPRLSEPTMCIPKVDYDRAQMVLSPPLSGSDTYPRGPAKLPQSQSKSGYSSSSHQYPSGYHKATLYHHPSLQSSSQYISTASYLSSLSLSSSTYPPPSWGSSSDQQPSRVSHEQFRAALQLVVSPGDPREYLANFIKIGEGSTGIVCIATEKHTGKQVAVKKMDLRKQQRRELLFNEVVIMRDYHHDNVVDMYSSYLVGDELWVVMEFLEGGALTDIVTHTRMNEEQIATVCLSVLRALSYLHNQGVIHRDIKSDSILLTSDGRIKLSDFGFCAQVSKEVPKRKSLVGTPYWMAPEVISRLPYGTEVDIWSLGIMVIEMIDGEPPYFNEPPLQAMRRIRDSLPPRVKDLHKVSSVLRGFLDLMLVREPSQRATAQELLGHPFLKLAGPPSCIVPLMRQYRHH
Method in brief: as §1

PDHK2(h) = biological target: T2, PDHK2(h) (Homo sapiens, UniProt Q15119)
T2 construct: gene PDK2
Method in brief: as §1

PDGFRα(V561D)(h) = biological target: T3, PDGFRα(V561D)(h) (Homo sapiens, UniProt P16234, V561D)
T3 construct: gene PDGFRA
Method in brief: as §1

Wee1B(h) = biological target: T4, Wee1B(h) (Homo sapiens, UniProt P0C1S8)
T4 construct: gene WEE2
T4 sequence (P0C1S8 whole entry): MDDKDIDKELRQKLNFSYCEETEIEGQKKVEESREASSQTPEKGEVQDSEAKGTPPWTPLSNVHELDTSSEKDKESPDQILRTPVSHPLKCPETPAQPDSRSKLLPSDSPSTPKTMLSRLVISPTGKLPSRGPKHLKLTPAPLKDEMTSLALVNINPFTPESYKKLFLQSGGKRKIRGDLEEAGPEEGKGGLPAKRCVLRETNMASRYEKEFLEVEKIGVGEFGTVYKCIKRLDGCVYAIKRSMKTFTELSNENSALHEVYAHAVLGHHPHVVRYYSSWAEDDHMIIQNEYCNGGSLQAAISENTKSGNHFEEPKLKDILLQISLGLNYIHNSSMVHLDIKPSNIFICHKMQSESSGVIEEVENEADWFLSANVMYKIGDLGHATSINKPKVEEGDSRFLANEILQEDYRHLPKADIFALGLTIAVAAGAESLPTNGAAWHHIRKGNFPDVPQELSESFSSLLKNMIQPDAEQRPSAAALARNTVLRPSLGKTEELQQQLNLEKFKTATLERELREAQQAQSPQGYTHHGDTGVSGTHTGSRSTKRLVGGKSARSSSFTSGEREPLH
Method in brief: as §1

BIKe(h) = biological target: T5, BIKe(h) (Homo sapiens, UniProt Q9NSY1)
T5 construct: gene BMP2K
Method in brief: as §1

STK32A(h) = STK32A(h) (Homo sapiens, UniProt Q8WU08)
Sequence of STK32A(h) (Q8WU08 whole entry): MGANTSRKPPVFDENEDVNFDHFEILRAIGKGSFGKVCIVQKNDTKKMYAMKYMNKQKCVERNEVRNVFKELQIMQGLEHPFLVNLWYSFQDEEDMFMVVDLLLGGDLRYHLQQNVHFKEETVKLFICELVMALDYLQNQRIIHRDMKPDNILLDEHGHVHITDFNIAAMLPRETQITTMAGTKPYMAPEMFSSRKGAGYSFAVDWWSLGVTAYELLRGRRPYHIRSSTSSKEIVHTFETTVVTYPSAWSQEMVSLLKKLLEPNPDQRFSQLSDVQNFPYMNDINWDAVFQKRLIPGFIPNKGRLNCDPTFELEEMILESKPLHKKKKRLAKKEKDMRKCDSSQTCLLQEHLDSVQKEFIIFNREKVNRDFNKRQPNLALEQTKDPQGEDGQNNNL
Method in brief: as §1

HPK1(h) = biological target: T6, HPK1(h) (Homo sapiens, UniProt Q92918)
T6 construct: gene MAP4K1
T6 sequence (Q92918 whole entry): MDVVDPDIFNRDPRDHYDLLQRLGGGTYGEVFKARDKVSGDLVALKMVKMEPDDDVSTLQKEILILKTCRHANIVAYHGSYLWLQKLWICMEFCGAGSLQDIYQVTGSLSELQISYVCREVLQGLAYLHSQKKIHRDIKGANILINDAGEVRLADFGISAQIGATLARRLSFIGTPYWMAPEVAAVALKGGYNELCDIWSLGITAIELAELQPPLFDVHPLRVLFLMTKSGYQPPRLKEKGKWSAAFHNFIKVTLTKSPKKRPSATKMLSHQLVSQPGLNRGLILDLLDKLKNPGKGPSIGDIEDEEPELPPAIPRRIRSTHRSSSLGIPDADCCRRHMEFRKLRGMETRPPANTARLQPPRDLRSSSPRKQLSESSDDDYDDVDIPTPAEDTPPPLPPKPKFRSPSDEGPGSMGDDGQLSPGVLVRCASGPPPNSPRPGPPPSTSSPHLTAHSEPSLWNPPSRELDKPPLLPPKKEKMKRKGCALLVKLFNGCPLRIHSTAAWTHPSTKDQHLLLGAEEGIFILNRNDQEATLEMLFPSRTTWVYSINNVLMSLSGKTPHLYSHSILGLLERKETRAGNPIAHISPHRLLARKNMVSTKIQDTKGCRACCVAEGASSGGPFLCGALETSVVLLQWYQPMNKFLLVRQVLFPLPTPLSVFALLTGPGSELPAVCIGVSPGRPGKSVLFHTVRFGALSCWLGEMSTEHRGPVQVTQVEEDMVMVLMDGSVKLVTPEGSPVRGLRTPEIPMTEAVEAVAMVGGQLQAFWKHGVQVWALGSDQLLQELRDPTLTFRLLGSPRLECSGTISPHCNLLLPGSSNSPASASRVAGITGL
Method in brief: as §1

VRK2(h) = VRK2(h) (Homo sapiens, UniProt Q86Y07)
Sequence of VRK2(h) (Q86Y07 whole entry): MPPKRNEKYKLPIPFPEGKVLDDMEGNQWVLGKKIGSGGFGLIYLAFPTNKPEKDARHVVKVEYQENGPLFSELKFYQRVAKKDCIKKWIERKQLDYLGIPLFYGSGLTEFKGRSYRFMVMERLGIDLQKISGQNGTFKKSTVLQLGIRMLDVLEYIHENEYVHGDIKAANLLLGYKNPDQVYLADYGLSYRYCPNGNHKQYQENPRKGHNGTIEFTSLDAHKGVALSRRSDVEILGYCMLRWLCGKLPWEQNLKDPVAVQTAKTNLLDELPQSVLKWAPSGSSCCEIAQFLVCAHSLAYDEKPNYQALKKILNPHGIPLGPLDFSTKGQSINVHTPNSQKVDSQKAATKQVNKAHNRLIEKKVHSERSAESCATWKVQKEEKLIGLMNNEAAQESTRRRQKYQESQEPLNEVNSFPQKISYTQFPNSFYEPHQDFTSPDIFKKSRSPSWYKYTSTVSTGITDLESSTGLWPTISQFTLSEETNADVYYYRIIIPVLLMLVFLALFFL
Method in brief: as §1

[1] = biological target: T7, PI3 Kinase (p110a(E542K)/p85a)(m) (Mus musculus, UniProt P42337, E542K)
T7 construct: gene Pik3ca
T7 sequence (P42337 whole entry E542K): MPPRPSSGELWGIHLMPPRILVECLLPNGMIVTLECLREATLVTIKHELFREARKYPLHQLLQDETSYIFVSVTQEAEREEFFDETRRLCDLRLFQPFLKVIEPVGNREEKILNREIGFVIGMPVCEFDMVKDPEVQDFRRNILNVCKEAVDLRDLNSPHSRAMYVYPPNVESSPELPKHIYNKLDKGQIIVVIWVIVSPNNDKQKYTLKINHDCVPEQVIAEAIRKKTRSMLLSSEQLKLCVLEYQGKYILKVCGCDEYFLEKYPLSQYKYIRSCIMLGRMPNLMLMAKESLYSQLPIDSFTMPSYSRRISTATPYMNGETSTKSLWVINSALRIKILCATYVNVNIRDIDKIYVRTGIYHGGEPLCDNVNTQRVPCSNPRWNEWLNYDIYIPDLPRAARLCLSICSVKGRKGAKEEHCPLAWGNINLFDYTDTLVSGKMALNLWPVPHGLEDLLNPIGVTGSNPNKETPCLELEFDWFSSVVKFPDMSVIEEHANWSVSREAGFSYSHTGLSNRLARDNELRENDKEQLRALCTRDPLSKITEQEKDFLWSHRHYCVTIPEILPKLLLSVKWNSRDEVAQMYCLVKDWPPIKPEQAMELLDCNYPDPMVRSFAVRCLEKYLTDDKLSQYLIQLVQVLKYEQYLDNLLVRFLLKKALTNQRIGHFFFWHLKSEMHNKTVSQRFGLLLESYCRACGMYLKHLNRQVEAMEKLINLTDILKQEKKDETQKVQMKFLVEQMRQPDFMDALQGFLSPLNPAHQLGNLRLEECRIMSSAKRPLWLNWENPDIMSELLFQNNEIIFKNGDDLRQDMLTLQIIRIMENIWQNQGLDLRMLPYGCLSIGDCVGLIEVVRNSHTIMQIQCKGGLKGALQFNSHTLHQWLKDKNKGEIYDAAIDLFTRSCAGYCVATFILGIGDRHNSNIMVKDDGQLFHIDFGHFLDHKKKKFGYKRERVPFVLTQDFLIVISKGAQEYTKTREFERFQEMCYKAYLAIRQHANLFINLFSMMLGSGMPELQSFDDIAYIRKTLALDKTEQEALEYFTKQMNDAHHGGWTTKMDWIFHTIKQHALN
T7 sequence (P26450 whole entry partner): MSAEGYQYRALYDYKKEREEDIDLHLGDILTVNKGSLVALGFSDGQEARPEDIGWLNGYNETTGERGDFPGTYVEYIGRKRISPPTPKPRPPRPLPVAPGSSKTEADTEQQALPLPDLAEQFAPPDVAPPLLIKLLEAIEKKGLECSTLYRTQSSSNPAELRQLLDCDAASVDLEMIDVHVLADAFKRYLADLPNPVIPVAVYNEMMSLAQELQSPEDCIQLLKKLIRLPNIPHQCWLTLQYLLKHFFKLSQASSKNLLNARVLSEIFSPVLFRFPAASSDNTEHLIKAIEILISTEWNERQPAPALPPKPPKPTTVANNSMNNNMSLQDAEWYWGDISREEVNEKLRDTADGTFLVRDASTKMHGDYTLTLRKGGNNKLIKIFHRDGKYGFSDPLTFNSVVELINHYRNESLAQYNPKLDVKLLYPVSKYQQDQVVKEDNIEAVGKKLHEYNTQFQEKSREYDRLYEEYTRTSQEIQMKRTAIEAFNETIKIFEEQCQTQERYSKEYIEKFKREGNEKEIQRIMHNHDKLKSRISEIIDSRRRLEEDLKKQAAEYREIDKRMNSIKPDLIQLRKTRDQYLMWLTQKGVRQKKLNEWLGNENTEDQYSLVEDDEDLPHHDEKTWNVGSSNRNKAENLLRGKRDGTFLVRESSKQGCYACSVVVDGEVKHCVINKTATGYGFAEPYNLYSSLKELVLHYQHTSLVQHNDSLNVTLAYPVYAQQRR
Method in brief: as §1

Abl (M351T)(h) = biological target: T8, Abl (M351T)(h) (Homo sapiens, UniProt P00519, M351T)
T8 construct: gene ABL1
Method in brief: as §1

PAR-1Bα(h) = biological target: T9, PAR-1Bα(h) (Homo sapiens, UniProt Q7KZI7)
T9 construct: gene MARK2
Method in brief: as §1

[2] = read-out: Residual activity (%) 5ay
[3] = read-out: Residual activity (%) Spautin-1 5aa
[4] = read-out: Residual activity (%) 5at
[5] = read-out: Residual activity (%) 5as

## COc1ccc2ncnc(Nc3cccc(F)c3)c2c1 [5ay, N-(3-Fluorophenyl)-6-Methoxy-4-Quinazolinamine]
PEK(h); [2]
  remaining activity at 10 µM: 108%
PAK5(h); [2]
  remaining activity at 10 µM: 83%
PDHK2(h); [2]
  remaining activity at 10 µM: 94%
PDGFRα(V561D)(h); [2]
  remaining activity at 10 µM: 98%
Wee1B(h); [2]
  remaining activity at 10 µM: 106%
BIKe(h); [2]
  remaining activity at 10 µM: 67%
STK32A(h); [2]
  remaining activity at 10 µM: 103%
HPK1(h); [2]
  remaining activity at 10 µM: 92%
VRK2(h); [2]
  remaining activity at 10 µM: 88%
[1]; [2]
  remaining activity at 10 µM: 93%
Abl (M351T)(h); [2]
  remaining activity at 10 µM: 76%
PAR-1Bα(h); [2]
  remaining activity at 10 µM: 83%

## Fc1ccc(CNc2ncnc3ccc(F)cc23)cc1 [5aa, 6-Fluoro-N-(4-fluorobenzyl)-4-Quinazolinamine]
PEK(h); [3]
  remaining activity at 10 µM: 105%
PAK5(h); [3]
  remaining activity at 10 µM: 95%
PDHK2(h); [3]
  remaining activity at 10 µM: 103%
PDGFRα(V561D)(h); [3]
  remaining activity at 10 µM: 86%
Wee1B(h); [3]
  remaining activity at 10 µM: 95%
BIKe(h); [3]
  remaining activity at 10 µM: 95%
STK32A(h); [3]
  remaining activity at 10 µM: 95%
HPK1(h); [3]
  remaining activity at 10 µM: 92%
VRK2(h); [3]
  remaining activity at 10 µM: 91%
[1]; [3]
  remaining activity at 10 µM: 96%
Abl (M351T)(h); [3]
  remaining activity at 10 µM: 93%
PAR-1Bα(h); [3]
  remaining activity at 10 µM: 84%

## Fc1ccc2ncnc(NCCc3ccc(Cl)cc3)c2c1 [5at, N-[2-(4-Chlorophenyl)Ethyl]-6-Fluoro-4-Quinazolinamine]
PEK(h); [4]
  remaining activity at 10 µM: 110%
PAK5(h); [4]
  remaining activity at 10 µM: 86%
PDHK2(h); [4]
  remaining activity at 10 µM: 87%
PDGFRα(V561D)(h); [4]
  remaining activity at 10 µM: 90%
Wee1B(h); [4]
  remaining activity at 10 µM: 100%
BIKe(h); [4]
  remaining activity at 10 µM: 88%
STK32A(h); [4]
  remaining activity at 10 µM: 100%
HPK1(h); [4]
  remaining activity at 10 µM: 96%
VRK2(h); [4]
  remaining activity at 10 µM: 94%
[1]; [4]
  remaining activity at 10 µM: 94%
Abl (M351T)(h); [4]
  remaining activity at 10 µM: 69%
PAR-1Bα(h); [4]
  remaining activity at 10 µM: 101%

## Fc1ccc(CCNc2ncnc3ccc(F)cc23)cc1 [5as, 6-Fluoro-N-[2-(4-Fluorophenyl)Ethyl]-4-Quinazolinamine]
PEK(h); [5]
  remaining activity at 10 µM: 112%
PAK5(h); [5]
  remaining activity at 10 µM: 85%
PDHK2(h); [5]
  remaining activity at 10 µM: 93%
PDGFRα(V561D)(h); [5]
  remaining activity at 10 µM: 92%
Wee1B(h); [5]
  remaining activity at 10 µM: 99%
BIKe(h); [5]
  remaining activity at 10 µM: 98%
STK32A(h); [5]
  remaining activity at 10 µM: 99%
HPK1(h); [5]
  remaining activity at 10 µM: 98%
VRK2(h); [5]
  remaining activity at 10 µM: 99%
[1]; [5]
  remaining activity at 10 µM: 91%
Abl (M351T)(h); [5]
  remaining activity at 10 µM: 73%
PAR-1Bα(h); [5]
  remaining activity at 10 µM: 86%
